Columns and labels:
hERG channel = biological target: T1, hERG channel (Homo sapiens, UniProt Q12809); experiment: hERG channel inhibition assay (patch-clamp, CHO hERG cells); format: cell-based; conditions: for IC50 / IC20: CHO hERG cells, whole-cell patch-clamp; for IC20: human, CHO cells stably expressing hERG; for hERG IC20 / TLR8 IC50 / hERG IC20 / TLR7 IC50 / hERG IC20 / TLR9 IC50: safety ratio; for hERG IC20 / TLR7 IC50: TLR7 IC50 of ER compounds from Table 1; for hERG IC20 / TLR9 IC50: TLR9 IC50 of ER compounds from Table 1
T1 construct: expressed in transfected cells; host or cells: CHO (Chinese hamster ovary)
T1 sequence (Q12809 whole entry): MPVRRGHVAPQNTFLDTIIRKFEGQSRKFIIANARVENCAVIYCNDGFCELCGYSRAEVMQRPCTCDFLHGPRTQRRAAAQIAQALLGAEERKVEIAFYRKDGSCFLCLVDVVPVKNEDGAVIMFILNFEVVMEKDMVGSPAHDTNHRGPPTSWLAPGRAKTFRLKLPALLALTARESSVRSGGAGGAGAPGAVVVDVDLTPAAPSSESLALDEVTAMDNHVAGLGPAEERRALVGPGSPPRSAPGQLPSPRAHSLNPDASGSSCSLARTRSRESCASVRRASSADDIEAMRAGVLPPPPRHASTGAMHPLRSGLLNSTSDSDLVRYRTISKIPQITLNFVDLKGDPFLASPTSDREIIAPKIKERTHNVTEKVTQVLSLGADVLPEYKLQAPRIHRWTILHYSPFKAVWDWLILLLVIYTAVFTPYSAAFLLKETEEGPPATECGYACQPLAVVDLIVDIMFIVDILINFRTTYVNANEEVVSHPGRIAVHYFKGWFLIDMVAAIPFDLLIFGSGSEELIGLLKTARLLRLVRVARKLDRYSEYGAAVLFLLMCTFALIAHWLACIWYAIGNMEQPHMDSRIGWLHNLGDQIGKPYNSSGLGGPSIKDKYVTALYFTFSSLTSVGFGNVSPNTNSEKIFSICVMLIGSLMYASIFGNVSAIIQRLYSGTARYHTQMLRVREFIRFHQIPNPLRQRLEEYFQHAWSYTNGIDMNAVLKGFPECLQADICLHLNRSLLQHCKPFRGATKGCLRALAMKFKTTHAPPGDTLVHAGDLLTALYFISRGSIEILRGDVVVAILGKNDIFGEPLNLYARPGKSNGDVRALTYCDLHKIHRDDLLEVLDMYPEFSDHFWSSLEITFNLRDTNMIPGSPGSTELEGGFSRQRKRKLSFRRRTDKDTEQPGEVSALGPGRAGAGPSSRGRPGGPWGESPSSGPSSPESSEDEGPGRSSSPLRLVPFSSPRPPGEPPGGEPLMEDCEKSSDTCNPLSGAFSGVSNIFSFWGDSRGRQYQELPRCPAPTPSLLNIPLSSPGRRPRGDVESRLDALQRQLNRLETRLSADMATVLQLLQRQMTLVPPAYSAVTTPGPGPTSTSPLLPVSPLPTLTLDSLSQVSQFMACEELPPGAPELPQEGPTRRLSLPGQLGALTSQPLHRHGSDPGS
Procedure: The hERG K^+ channels were cloned in humans and stably expressed in a CHO (Chinese hamster ovary) cell line. CHOhERG cells were used for patch-clamp (voltage-clamp, whole-cell) experiments. Cells were stimulated by a voltage pattern to activate hERG channels and conduct IKhERG currents (rapid delayed outward rectifier potassium current of the hERG channel). After the cells were stabilized for a few minutes, the amplitude and kinetics of IKhERG were recorded at a stimulation frequency of 0.1 Hz (6 bpm). Thereafter, the test compound was added to the preparation at increasing concentrations. For each concentration, an attempt was made to reach a steady-state effect, usually, this was achieved within 3-10 min at which time the next highest concentration was applied. The amplitude and kinetics of IKhERG are recorded in each concentration of the drug which were compared to the control values (taken as 100%). (references: Redfern WS, Carlsson L, Davis AS, Lynch WG, MacKenzie I, Palethorpe S, Siegl PK, Strang I, Sullivan AT, Wallis R, Camm AJ, Hammond TG. 2003; Relationships between preclinical cardiac electrophysiology, clinical QT interval prolongation and torsade de pointes for a broad range of drugs: evidence for a provisional safety margin in drug development. Cardiovasc. Res. 58:32-45, Sanguinetti MC, Tristani-Firouzi M. 2006; hERG potassium channels and cardiac arrhythmia. Nature 440:463-469, Webster R, Leishman D, Walker D. 2002; Towards a drug concentration effect relationship for QT prolongation and torsades de pointes. Curr. Opin. Drug Discov. Devel. 5:116-26).
Table 3. hERG and safety ratio results

[1] = Human microsome stability assay; format: in vitro ADME; conditions: 1 µM test compound, 0.5 mg/mL liver microsomal protein, 37 °C
Outline: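 Test compound at 1 µM was incubated with human liver microsomes (0.5 mg/mL protein) and an NADPH-regenerating system in 100 mM potassium phosphate, pH 7.4, at 37 °C. Samples were taken at 0–30 min and quenched with acetonitrile. Remaining compound was quantified by LC-MS/MS, with no-NADPH controls.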

| SMILES | IC50 (hERG channel) [µM] | IC20 (hERG channel) [µM] | hERG IC20 / TLR8 IC50 (hERG channel) | hERG IC20 / TLR7 IC50 (hERG channel) | hERG IC20 / TLR9 IC50 (hERG channel) | Clearance of Human microsome [1] [mL/min/kg] |
| --- | --- | --- | --- | --- | --- | --- |
| C[C@@H]1Cc2cc(N3CCN(C[C@H]4CN(c5ccc(C#N)c6ncccc56)C[C@@H](C)O4)CC3)ncc2CN1 (single isomer, unassigned) [Example 70] | > 20 | > 10 | >2439.0 | >390.6 | >120.91 | 7.55 |
| C[C@@H]1CN(c2ccc(C#N)c3ncccc23)C[C@H](CN2CCN(c3cc4c(cn3)CCN[C@@H]4C)CC2)O1 (single isomer, unassigned) [Example 74] | > 20 | > 10 | >2857.1 | >1470.6 | >112.1 | 7.39 |
| C[C@@H]1CN(c2ccc(C#N)c3ncccc23)C[C@H](CN2CCN(c3cc4c(cn3)C[C@H](C)NC4)CC2)O1 (single isomer, unassigned) [Example 76] | > 20 | > 10 | >1960.8 | >714.3 | >102.7 | 6.15 |
| C[C@@H]1Cc2cnc(N3CCN(C[C@H]4CN(c5ccc(C#N)c6ncccc56)C[C@@H](C)O4)CC3)cc2CN1 (single isomer, unassigned) [Example 77] | > 20 | > 10 | >1515.2 | >885.0 | >86.9 | 6.34 |
| C[C@@H]1CN(c2ccc(C#N)c3ncccc23)C[C@H](CN2CCN(c3ccc4c(c3)CNC4)CC2)O1 [Example 7, 5-[(2S,6R)-2-[(4-isoindolin-5-ylpiperazin-1-yl)methyl]-6-methyl-morpholin-4-yl] quinoline-8-carbonitrile] | > 20 | 5.74 | 194.6 | 146.5 | 64.5 | 8.75 |
| C[C@@H]1CN(c2ccc(C#N)c3ncccc23)C[C@H](CN2CCN(c3cc4c(cn3)CCNC4)CC2)O1 [Example 20, 5-[(2R,6S)-2-methyl-6-[[4-(5,6,7,8-tetrahydro-2,6-naphthyridin-3-yl)piperazin-1-yl]methyl]morpholin-4-yl]quinoline-8-carbonitrile] | > 20 | > 10 | >1666.7 | >1298.7 | >139.1 | 6.43 |
| C[C@@H]1CN(c2ccc(C#N)c3ncccc23)C[C@H](CN2CCN(c3ccc4c(c3)C(O)CNC4)CC2)O1 (stereo partly drawn) [Example 22, 5-[(2S,6R)-2-[[4-(4-hydroxy-1,2,3,4-tetrahydroisoquinolin-6-yl)piperazin-1-yl]methyl]-6-methyl-morpholin-4-yl]quinoline-8-carbonitrile] | > 20 | > 10 | >520.8 | >259.7 | >222.7 | 6.82 |
| C[C@@H]1CN(c2ccc(C#N)c3ncccc23)C[C@H](CN2CCN(c3cnc4c(c3)CCNC4)CC2)O1 [Example 23, 5-[(2R,6S)-2-methyl-6-[[4-(5,6,7,8-tetrahydro-1,7-naphthyridin-3-yl)piperazin-1-yl]methyl]morpholin-4-yl]quinoline-8-carbonitrile] | > 20 | > 10 | >934.6 | >170.6 | >170.1 | 6.15 |
| C[C@@H]1CN(c2ccc(C#N)c3ncccc23)C[C@H](CN2CCN(c3ccc4c(n3)CNCC4)CC2)O1 [Example 69, 5-[(2R,6S)-2-methyl-6-[[4-(5,6,7,8-tetrahydro-1,7-naphthyridin-2-yl)piperazin-1-yl]methyl]morpholin-4-yl]quinoline-8-carbonitrile] | > 20 | 8.65 | 1879.8 | 697.4 | 104.3 | 6.23 |
| C[C@@H]1CN(c2ccc(C#N)c3nccnc23)C[C@H](CN2CCN(c3cc4c(cn3)CCNC4)CC2)O1 [Example 80, 8-[(2R,6S)-2-methyl-6-[[4-(5,6,7,8-tetrahydro-2,6-naphthyridin-3-yl)piperazin-1-yl]methyl]morpholin-4-yl]quinoxaline-5-carbonitrile] | – | – | – | – | – | 6.15 |
| C[C@@H]1CN(c2ccc(C#N)c3ncccc23)C[C@H](CN2CCN(c3ccc(Cl)cc3)CC2)O1 [Example R2, 5-[(2S,6R)-2-[[4-(4-chlorophenyl)piperazin-1-yl]methyl]-6-methyl-morpholin-4-yl]quinoline-8-carbonitrile, reference compound] | 0.77 | 0.28 | 0.8 | 1.3 | 0.04 | 15.43 |
